Source: article PMC3944116 (CPT: Pharmacometrics & Systems Pharmacology, 2014)

Columns and labels:
[1] = tested on: CYP3A4; assay: Pharmacogenetic covariate analysis: CYP3A4*22 on CL/F; format: in vivo, human; conditions: stated as % lower in text; univariate on base model
[2] = tested on: CYP3A4/CYP3A5; conditions: for Mean value (%), difference in CL/F, cluster C1 vs C4: C1: CYP3A5*1 noncarriers and CYP3A4*22 carriers; for Mean value (%), difference in CL/F, cluster C2 vs C4: C2: CYP3A5*1 noncarriers and CYP3A4*22 noncarriers
[3] = cited from earlier work
[4] = Population PK modeling; conditions: for Q/F, intercompartmental clearance: F fixed 0.5/1/0.23
[5] = tested on: CYP3A5; assay: Pharmacogenetic covariate analysis: CYP3A5*3 on CL/F; format: in vivo, human; conditions: final model; fractional change of CL/F in CYP3A5*1 carriers
[6] = base model without covariates, population estimate
[7] = final model with covariates, population estimate
[8] = final model, median of 1,000 bootstrap runs

Row | Compound | lower clearance of CYP3A4*22 carriers compared with noncarriers [1] [%] | Mean value (%), difference in CL/F, cluster C1 vs C4 ([2]; univariate on base model) [%] | Mean value (%), difference in CL/F, cluster C2 vs C4 ([2]; univariate on base model) [%] | plasma fraction bound to plasma proteins [3] [%] | Lagtime of absorption [4, 6] [h] | Q/F, intercompartmental clearance [4, 6] [L/h] | Vp/F, apparent peripheral distribution volume ([4]; base model without covariates, population estimate, fixed to 500 for tacrolimus) [L] | Vp/F ([4]; final model with covariates, fixed to 500 for tacrolimus) [L] | Ka [4, 7] [h⁻¹] | Lagtime [4, 7] [h] | Q/F [4, 7] [L/h] | Vc/F [4, 7] [L] | CL/F [4, 8] [L/h] | IBW on Vc/F, covariate effect ([4]; final model, ideal BW centered on population median, exponential function) | CYP3A5*3 on CL/F, covariate effect [5] | difference in clearance introduced for noncarriers of the CYP3A5*1 allele by CYP3A4*22 carriership ([2]; C1 vs C2) [%] | Mean value (%), difference in CL/F, cluster C3 vs C4 ([2]; C3: CYP3A5*1 carriers and CYP3A4*22 carriers, univariate on base model) [%] | DDPR ≤25 mg (IOV F) [4, 8] | HTC on CL/F + IOV F, covariate effect ([4]; final model, hematocrit)
1 | CO[C@H]1C[C@@H]2CC[C@@H](C)[C@@](O)(O2)C(=O)C(=O)N2CCCC[C@H]2C(=O)O[C@H]([C@H](C)C[C@@H]2CC[C@@H](OCCO)[C@H](OC)C2)CC(=O)[C@H](C)/C=C(\C)[C@@H](O)[C@@H](OC)C(=O)[C@H](C)C[C@H](C)/C=C/C=C/C=C/1C [Everolimus] | 7 | −15 | −10 | 75 | 0.71 | 42.7 | 348 | 343 | 7 | 0.71 | 43.1 | 140 | 16.7 | −0.96 | – | – | – | – | –
2 | C=CC[C@@H]1/C=C(\C)C[C@H](C)C[C@H](OC)[C@H]2O[C@@](O)(C(=O)C(=O)N3CCCC[C@H]3C(=O)O[C@H](/C(C)=C/[C@@H]3CC[C@@H](O)[C@H](OC)C3)[C@H](C)[C@@H](O)CC1=O)[C@H](C)C[C@@H]2OC [Tacrolimus] | – | −47 | −33 | – | 0.81 | 17.2 | – | – | 0.55 | 0.81 | 21 | 25.5 | – | – | 0.52 | 14 | −3 | 0.32 | −0.587
